Where two headings read alike, the source gives them in different places.
Experiments:
[1] = target: T1, PRMT5 (Homo sapiens, UniProt O14744); assay: PRMT5 biochemical IC50 assay with MTA as cofactor; conditions: PRMT5, MTA as cofactor; read-out: MTA IC50
T1 construct: purchased Viva (custom protein)

[2] = system: HAP1 MTAP-intact cell line; assay: SDMA in-cell western assay, HAP1 MTAP-intact; type: cell-based; conditions: HAP1 MTAP-intact, read-out: MTAP HAP1 intact IC50
Procedure, shortened: (§1)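 IC50 values come from SDMA signal quantified by in-cell western in two HAP1 lines, one with native MTAP levels and one lacking MTAP.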

[3] = target: T1, PRMT5; assay: PRMT5 biochemical IC50 assay with no cofactor; conditions: PRMT5, no cofactor
Source text: Table 1 indicates IC50 values (μM) against PRMT5 for exemplary compounds in the presence of SAM as cofactor, with no cofactor, and with MTA as cofactor, respectively (columns 4-6). […] Ki values can be calculated from the IC50 values as described in the Examples section. As detailed in the Examples section, for the assay performed in the presence of SAM, IC50=Ki×1.5 (Ki=IC50/1.5).

[4] = system: HAP1 MTAP-deleted cell line; assay: SDMA in-cell western assay, HAP1 MTAP-deleted; type: cell-based; conditions: for IC50: HAP1 MTAP-deleted
Procedure, shortened: as §1

[5] = target: T1, PRMT5; assay: PRMT5 biochemical IC50 assay with SAM as cofactor; conditions: PRMT5, SAM as cofactor; read-out: SAM IC50
[6] = system: HAP1 MTAP-deleted cell line; assay: Viability assay, MTAP-deleted cell line; type: cell-based; conditions: read-out: HAP1 MTAP deleted viability
Source text: Table 1 additionally indicates IC50 values in a viability assay for the MTAP-deleted cell line (column 10), indicating the effect of treatment with compound on cell survival.

[7] = Homo sapiens, HAP1, SDMA in-cell western
[8] = Homo sapiens, HAP1, SDMA in-cell western, read-out: HAP 1 MTAP deleted IC50
[9] = IC50 ratio HAP1 MTAP-intact / HAP1 MTAP-deleted, SDMA in-cell western
[10] = Homo sapiens, HAP1, viability assay, MTAP-deleted cell line
[11] = read-out: No Cofactor/ rel IC50
[12] = Homo sapiens, HAP1, SDMA in-cell western, read-out: HAP1 MTAP deleted IC50
[13] = IC50 ratio HAP1 MTAP-intact vs HAP1 MTAP-deleted, SDMA in-cell western
[14] = Homo sapiens, HAP1, viability, HAP1 MTAP-deleted cell line
[15] = Homo sapiens, HAP1, viability assay, HAP1 MTAP-deleted

T1 sequence (O14744 whole entry): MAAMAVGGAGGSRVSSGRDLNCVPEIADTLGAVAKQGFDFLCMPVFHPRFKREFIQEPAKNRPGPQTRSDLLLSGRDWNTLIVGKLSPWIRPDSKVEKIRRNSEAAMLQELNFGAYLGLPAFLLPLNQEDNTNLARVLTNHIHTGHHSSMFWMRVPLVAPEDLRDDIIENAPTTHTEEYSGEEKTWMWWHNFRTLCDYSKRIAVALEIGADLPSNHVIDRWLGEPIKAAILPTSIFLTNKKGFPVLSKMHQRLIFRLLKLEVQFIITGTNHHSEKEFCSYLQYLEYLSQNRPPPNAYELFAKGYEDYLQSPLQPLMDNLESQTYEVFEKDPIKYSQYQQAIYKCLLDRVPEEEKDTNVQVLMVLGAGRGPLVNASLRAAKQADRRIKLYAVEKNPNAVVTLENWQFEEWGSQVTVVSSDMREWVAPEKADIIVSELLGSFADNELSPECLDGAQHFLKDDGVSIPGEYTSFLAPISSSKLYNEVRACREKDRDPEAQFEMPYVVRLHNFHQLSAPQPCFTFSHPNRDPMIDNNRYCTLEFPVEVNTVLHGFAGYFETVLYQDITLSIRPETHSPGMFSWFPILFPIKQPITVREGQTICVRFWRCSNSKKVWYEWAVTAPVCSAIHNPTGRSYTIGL
T1 sequence (Q9BQA1 whole entry partner): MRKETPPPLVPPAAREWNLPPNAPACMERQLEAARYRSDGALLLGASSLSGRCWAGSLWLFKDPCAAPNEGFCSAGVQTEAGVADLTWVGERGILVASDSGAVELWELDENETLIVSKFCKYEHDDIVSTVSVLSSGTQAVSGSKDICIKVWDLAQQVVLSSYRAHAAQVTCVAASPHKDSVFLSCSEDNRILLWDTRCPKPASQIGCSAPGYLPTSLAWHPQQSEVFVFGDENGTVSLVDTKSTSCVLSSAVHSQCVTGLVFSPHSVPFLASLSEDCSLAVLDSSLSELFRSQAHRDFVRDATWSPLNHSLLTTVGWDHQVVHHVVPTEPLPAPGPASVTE

Structure (SMILES) | IC50 [1] | IC50 [2, 7] | IC50 ([3]; read-out: No Cofactor/rel IC50) | IC50 [4, 8] | MTAP intact/deleted ratio [4, 9] | IC50 [5] | IC50 [6, 10] | IC50 [3, 11] | IC50 [4, 12] | MTAP intact/deleted ratio [4, 13] | IC50 [6, 14] | IC50 [6, 15] | IC50 ([6]; Homo sapiens, HAP1, viability IC50, MTAP-deleted cell line) | IC50 ([2]; SDMA in-cell western) | IC50 ([4]; SDMA in-cell western, read-out: HAP 1 MTAP deleted IC50) | IC50 ([6]; viability assay, MTAP-deleted cell line)
Cc1cc(NC(=O)C(=O)N2C[C@H](C)CC[C@H]2c2ccc(C(F)(F)F)nc2)cnc1N (single isomer, unassigned) [Compound 1015] | > 500 nM | > 1000 nM | > 500 nM | > 1000 nM | C (an IC50 ratio of less than 3 fold) | > 500 nM | > 10000 nM | – | – | – | – | – | – | – | – | –
Cc1cncc(NC(=O)C(=O)N2C[C@H](C)CC[C@H]2c2ccc(N)cc2)c1 (single isomer, unassigned) [Compound 67] | 50 to 500 nM | > 1000 nM | – | > 1000 nM | B (an IC50 ratio greater than or equal to 3 fold but lower than 10 fold) | 50 to 500 nM | > 10000 nM | 50 to 500 nM | – | – | – | – | – | – | – | –
COc1ncc(NC(=O)C(=O)N2C[C@H](C)CC[C@H]2C2CCCC2)cc1C(N)=O (single isomer, unassigned) [Compound 306] | < 50 nM | > 1000 nM | 50 to 500 nM | – | A (an IC50 ratio greater than or equal to 10 fold) | 50 to 500 nM | 1000 to 10000 nM | – | < 100 nM | – | – | – | – | – | – | –
C[C@@H]1CC[C@H](c2ccccc2)N(C(=O)C(=O)Nc2cncc(C(N)=O)c2)[C@@H]1C (racemic) [Compound 163, rac-5-[[2-[(2R,3R,6R)-2,3-dimethyl-6-phenyl-1-piperidyl]-2-oxo-acetyl]amino]pyridine-3-carboxamide] | < 50 nM | > 1000 nM | – | 100 to 1000 nM | A (an IC50 ratio greater than or equal to 10 fold) | 50 to 500 nM | > 10000 nM | 50 to 500 nM | – | – | – | – | – | – | – | –
CO[C@H]1C[C@H](c2ccc3scnc3c2)N(C(=O)C(=O)Nc2cnc(N)c(C)c2)C[C@H]1C (relative stereo) [Compound 1216] | < 50 nM | < 100 nM | < 50 nM | – | – | 50 to 500 nM | < 1000 nM | – | < 100 nM | B (an IC50 ratio greater than or equal to 3 fold but lower than 10 fold) | – | – | – | – | – | –
CCc1cc(NC(=O)C(=O)N2C[C@@H](C)CC[C@@H]2c2ccc3sc(CC4(N(C)C)COC4)nc3c2)cnc1N [Compound 1399, N-(6-amino-5-ethylpyridin-3-yl)-2-((2R,5S)-2-(2-((3-(dimethylamino)oxetan-3-yl)methyl)benzo[d]thiazol-5-yl)-5-methylpiperidin-1-yl)-2-oxoacetamide] | < 50 nM | 100 to 1000 nM | – | < 100 nM | A (an IC50 ratio greater than or equal to 10 fold) | 50 to 500 nM | – | < 50 nM | – | – | < 1000 nM | – | – | – | – | –
CCc1cc(NC(=O)C(=O)N2C[C@@H](C)CC[C@@H]2c2ccc3sc(-c4nccn4C)nc3c2)cnc1N [Compound 1192, N-(6-amino-5-ethylpyridin-3-yl)-2-((2R,5S)-5-methyl-2-(2-(1-methyl-1H-imidazol-2-yl)benzo[d]thiazol-5-yl)piperidin-1-yl)-2-oxoacetamide] | < 50 nM | 100 to 1000 nM | < 50 nM | – | – | 50 to 500 nM | < 1000 nM | – | < 100 nM | A (an IC50 ratio greater than or equal to 10 fold) | – | – | – | – | – | –
Cc1cc(NC(=O)C(=O)N2C[C@H](C)CC[C@H]2c2ccc3[nH]c(=O)ccc3c2)cnc1N (single isomer, unassigned) [Compound 763] | > 500 nM | > 1000 nM | > 500 nM | – | B (an IC50 ratio greater than or equal to 3 fold but lower than 10 fold) | > 500 nM | – | – | > 1000 nM | – | – | > 10000 nM | – | – | – | –
CCc1cc(NC(=O)C(=O)N2C[C@H](C)CC[C@H]2c2cc(Cl)cc(Cl)c2)cnc1N (single isomer, unassigned) [Compound 966] | 50 to 500 nM | > 1000 nM | > 500 nM | > 1000 nM | B (an IC50 ratio greater than or equal to 3 fold but lower than 10 fold) | > 500 nM | > 10000 nM | – | – | – | – | – | – | – | – | –
C[C@@H]1CC[C@@H](c2ccc(CC3CC3)cc2)N(C(=O)C(=O)Nc2cncc(C(N)=O)c2)C1 (racemic) [Compound 273, rac-5-{2-[(2R,5S)-2-[4-(Cyclopropylmethyl)phenyl]-5-methylpiperidin-1-yl]-2-oxoacetamido}pyridine-3-carboxamide] | < 50 nM | > 1000 nM | 50 to 500 nM | – | A (an IC50 ratio greater than or equal to 10 fold) | 50 to 500 nM | 1000 to 10000 nM | – | 100 to 1000 nM | – | – | – | – | – | – | –
C[C@H]1CC[C@H](c2ccc3c(c2)C(=O)NC3)N(C(=O)C(=O)Nc2cncc(C(N)=O)c2)C1 (single isomer, unassigned) [Compound 751] | > 500 nM | > 1000 nM | > 500 nM | – | C (an IC50 ratio of less than 3 fold) | > 500 nM | – | – | > 1000 nM | – | – | > 10000 nM | – | – | – | –
Cc1cc(NC(=O)C(=O)N2C[C@H](C)CC[C@H]2c2cccc(Br)c2)cnc1N (racemic) [Compound 600, N-(6-amino-5-methyl-3-pyridyl)-2-[(2S,5R)-2-(3-bromophenyl)-5-methyl-1-piperidyl]-2-oxo-acetamide] | 50 to 500 nM | 100 to 1000 nM | 50 to 500 nM | < 100 nM | A (an IC50 ratio greater than or equal to 10 fold) | 50 to 500 nM | – | – | – | – | – | – | < 1000 nM | – | – | –
CC(=O)N1CCC(c2cccc(C3CCCCN3C(=O)C(=O)Nc3cnc(N)c(C)c3)c2)CC1 (single isomer, unassigned) [Compound 96] | < 50 nM | – | – | – | A (an IC50 ratio greater than or equal to 10 fold) | 50 to 500 nM | – | 50 to 500 nM | – | – | – | – | – | > 1000 nM | 100 to 1000 nM | > 10000 nM
COc1ccc([C@@H]2CC[C@@H](C)CN2C(=O)C(=O)Nc2cncc(C(N)=O)c2)cc1F (racemic) [Compound 208, rac-5-{2-[(2R,5S)-2-(3-Fluoro-4-methoxyphenyl)-5-methylpiperidin-1-yl]-2-oxoacetamido}pyridine-3-carboxamide] | < 50 nM | > 1000 nM | 50 to 500 nM | – | A (an IC50 ratio greater than or equal to 10 fold) | 50 to 500 nM | 1000 to 10000 nM | – | 100 to 1000 nM | – | – | – | – | – | – | –
C[C@H]1CC[C@H](c2ccc3sc(CCN(C)C)nc3c2)N(C(=O)C(=O)Nc2cnc(N)c(C3CC3)c2)C1 (single isomer, unassigned) [Compound 1331] | > 500 nM | > 1000 nM | – | 100 to 1000 nM | A (an IC50 ratio greater than or equal to 10 fold) | > 500 nM | – | > 500 nM | – | – | 1000 to 10000 nM | – | – | – | – | –
Cc1cc(NC(=O)C(=O)N2C[C@H](C)CC[C@H]2c2ccc(-c3cncs3)cc2)cnc1N (single isomer, unassigned) [Compound 900, N-(6-amino-5-methylpyridin-3-yl)-2-(5-methyl-2-(4-(thiazol-5-yl)phenyl)piperidin-1-yl)-2-oxoacetamide] | > 500 nM | > 1000 nM | > 500 nM | > 1000 nM | C (an IC50 ratio of less than 3 fold) | > 500 nM | > 10000 nM | – | – | – | – | – | – | – | – | –
CCc1cc(NC(=O)C(=O)N2C[C@@H](C)CC[C@@H]2c2ccc3sc(-c4ccnn4C)nc3c2)cnc1N [Compound 1389, N-(6-amino-5-ethylpyridin-3-yl)-2-((2R,5S)-5-methyl-2-(2-(1-methyl-1H-pyrazol-5-yl)benzo[d]thiazol-5-yl)piperidin-1-yl)-2-oxoacetamide] | < 50 nM | 100 to 1000 nM | – | < 100 nM | A (an IC50 ratio greater than or equal to 10 fold) | 50 to 500 nM | – | < 50 nM | – | – | < 1000 nM | – | – | – | – | –
NC(=O)c1cncc(NC(=O)C(=O)N2CC3CCC(C3)C2c2ccccc2)c1 (racemic) [Compound 86, rac-5-[[2-oxo-2-[(1R,4R,5S)-4-phenyl-3-azabicyclo[3.2.1]octan-3-yl]acetyl]amino]pyridine-3-carboxamide] | 50 to 500 nM | > 1000 nM | – | 100 to 1000 nM | A (an IC50 ratio greater than or equal to 10 fold) | 50 to 500 nM | > 10000 nM | 50 to 500 nM | – | – | – | – | – | – | – | –
